Experimental data: US20150147411A1, “COMPOSITION FOR PREVENTING OR TREATING COLITIS COMPRISING S-ALLYL-L-CYSTEINE AS ACTIVE INGREDIENT, AND MEDICAL PREPARATION COMPRISING SAME” (PHARMAKING CO., LTD., priority 2012, published 2015)

Assays:
Type in all cases: in vivo, C57BL6 mice
[1] = Side effects of S-allyl-L-cysteine
Source text: Cyclosporine or prednisolone, which are […] used to treat colitis thanks to their immunosuppressive effects, are reported to have the side effect of weight gain.
The anti-inflammatory agents including mesalizine or mesalazine, NSAIDs, etc. are known to cause various side effects such as hypersensitive reactions, nausea, vomiting, headache, etc.

COX-2 = COX-2 expression in colon tissue by immunofluorescence
Description: (§1) For use in testing therapeutic effects of the agents of Examples, Comparative Examples, and Control Examples, the mice (G1 to G7) were fed with a 2.5 wt % aqueous dextran sodium sulfate (DSS) solution to induce inflammatory bowel disease therein.
The immunofluorescence of COX-2 was performed on paraffin unstained slides of animal tissues.

[2] = Body weight of mice pre-treated with compositions, DSS-induced colitis
Description: In this experiment, C57BL6 mice were employed for the following reasons. The experimental animals are widely used throughout the world and are evaluated as being suitable for validity assays. In addition, because a great amount of fundamental test data on various disease models of the animals has been accumulated, the data can be utilized in analyzing and assessing test results. When purchased from OrientBio Inc. the experimental animals weighed 18 g±20%. They were bred under a light intensity of 150˜300 Lux in the controlled condition of 12:12-h light-dark cycles, with at least 10 ventilation rounds per hour.
as §1
Weights are expressed as mean±standard deviation.
From Jan. 12, 2012, the mice were allowed to drink an aqueous DSS 2.5 wt % solution for 7 days. DSS-induced diarrhea or hematochezia caused mice in groups G2 to G7 to lose weight, as compared at the point of DSS treatment.

IL-1β = experiment: Level of inflammatory cytokine IL-1β; settings: G3 to G6 (12.5-100 mg/kg), FIG. 7, equivalency to control G7
Description: as §1
(§2) Levels of IL-1β IL-6, IL-12, and TNF-α, which are representative inflammation-inducing cytokines, were measured. […] The observation results are depicted in […].

TNF-α = experiment: Level of inflammatory cytokine TNF-α; settings: G3 to G6 (12.5-100 mg/kg), FIG. 9, equivalency to control G7
Description: as §1, §2

IL-12 = experiment: Level of inflammatory cytokine IL-12; settings: G3 to G6 (12.5-100 mg/kg), FIG. 10, equivalency to control G7
Description: as §1, §2

[3] = test system: total antioxidant concentration; experiment: Anti-oxidant activity: total antioxidant concentrations in tissues; settings: G3 (12.5 mg/kg) compared to the DSS-treated group
Source text: as §1
Its amount was discovered to decrease at a low concentration of S-allyl-L-cysteine as in G3 and G4, with statistical significance.

[4] = test system: dextran sodium sulfate (DSS)-induced colitis mouse models; experiment: Disease Activity Index (DAI) score, DSS-induced colitis
Source text: as §1
(§3) At the end of the test, Disease Activity Index (DAI) Scores were made in consideration of the degree of hematochezia and diarrhea, and are depicted in FIG. 3. In the graph, # represents significance (p<0.0001) compared to the normal (G1), and * represents significance (p<0.05), compared to the colitis animal model.

[5] = test system: dextran sodium sulfate (DSS)-induced colitis mouse models; experiment: Pathological observation of colon by H&E staining, total pathologic score
Description: as §1
Colon specimens taken were fixed in a 10% formalin solution and stained with hematoxylin & eosin (H&E stain), and their images are given in FIG. 5. Further, they were evaluated through a blind test under the criteria of a total of six histopathological opinions on inflammation (inflammation, follicle aggregation, oedema, erosion/ulceration, crypt loss, and infiltration of mono- and polymorphonuclear cells), and scored. Total pathologic scores obtained by summing up scores for each items and for the six opinions are depicted in FIG. 6.

[6] = test system: dextran sodium sulfate (DSS)-induced colitis mouse models; experiment: Colon length from cecum to end of colon, DSS-induced colitis; settings: G3 to G6 (12.5-100 mg/kg) compared to Comparative Example, with statistical significance, FIG. 4
Source text: as §1
After 7 days of DSS drinking, the mice were sacrificed in an ether anesthetized condition, and the colon was excised.
as §3

IL-6 = experiment: Level of inflammatory cytokine IL-6; settings: G3 to G6 (12.5-100 mg/kg), FIG. 8, equivalency to control G7
Description: as §1, §2

Malondialdehyde (MDA) = experiment: Anti-oxidant activity: malondialdehyde (MDA), lipid peroxidation
Source text: as §1
Malondialdehyde (MDA), accounting for the degree of lipid peroxidation, a representative marker of oxidation stress, was quantified.

Compound: O=C(NC(Cc1cc(=O)[nH]c2ccccc12)C(=O)O)c1ccc(Cl)cc1 (stereo not drawn) [Control, Rebamipide, reference compound]
- Side effects (hypersensitive reactions, nausea, vomiting, headache, etc.) ([1]; control G7, extended test period of 12 weeks): side effects detected
- COX-2 expression in the fascial tissue beneath the mucosal tissue (COX-2; G7 (Control 50 mg/kg), immunofluorescence): did not effectively do so
- COX-2 expression in mucosal tissues (COX-2; G7 (Control 50 mg/kg), immunofluorescence, FIG. 13): inhibited COX-2 expression in mucosal tissues
- Body weight (mean ± standard deviation) ([2]; G7, Control 50 mg/kg, 2012.01.12, at the time of DSS treatment): 23.2 ± 1.2 g
- Body weight (mean ± standard deviation) ([2]; G7, Control 50 mg/kg, 2012.01.18, at autopsy after 7 days DSS 2.5 wt %): 21.1 ± 0.9 g

Compound: C=CCSC[C@H](N)C(=O)O [Example 1, S-allyl-L-cysteine]
- Expression level of IL-1β (IL-1β): decreased expression levels
- Expression level of TNF-α (TNF-α): decreased expression levels
- Expression level of IL-12 (IL-12): decreased expression levels
- Total antioxidant concentration in tissues [3]: increase in antioxidant concentration
- Therapeutic effects (DAI, colon length) compared with conventional agent (G7) ([4]; G3 to G6 (12.5-100 mg/kg) vs G7 (Control 50 mg/kg)): equivalent to or higher than those of the conventional agent
- Disease Activity Index (DAI) score ([4]; G3 to G6 (12.5-100 mg/kg), DSS 2.5 wt %, end of test, FIG. 3): score low in DAI
- Rehabilitation of mucosal tissues by total pathologic score ([5]; G3 (12.5 mg/kg), FIG. 6): best rehabilitation of mucosal tissues
- Histology of intestinal mucosa tissues (H&E) ([5]; G3 to G6 (12.5-100 mg/kg), FIG. 5): recovered the intestinal mucosa tissues to a normal state
- Total pathologic score (H&E) ([5]; G3 to G6 (12.5-100 mg/kg), FIG. 6): lowered the pathologic score
- Therapeutic effect (pathologic score) compared with control G7 ([5]; G3 to G6 vs G7 (Control 50 mg/kg)): equivalent to or higher than that of the control G7
- Side effect of weight gain ([1]; G3 to G6 (12.5-100 mg/kg)): not cause the side effect of weight gain
- Side effects (hypersensitive reactions, nausea, vomiting, headache, etc.) ([1]; G3 to G6, extended test period of 12 weeks): did not suffer from the side effects
- COX-2 expression level (COX-2; G3 (12.5 mg/kg)): significantly increased
- COX-2 expression levels in mucosal tissues (COX-2; G3 to G6 (12.5-100 mg/kg), immunofluorescence, FIG. 13): reduced COX-2 expression levels
- COX-2 expression in the fascial tissue (COX-2; G4 to G6 (25-100 mg/kg), immunofluorescence): inhibited COX-2 expression even in the fascial tissue
- COX-2 expression level (COX-2; other test groups (G4 to G6, 25-100 mg/kg)): significantly decrease
- Body weight (mean ± standard deviation) ([2]; G3, Ex. 1 12.5 mg/kg, 2012.01.12, at the time of DSS treatment, 12.5 mg/kg): 22.1 ± 2.4 g
- Body weight (mean ± standard deviation) ([2]; G3, Ex. 1 12.5 mg/kg, 2012.01.18, at autopsy after 7 days DSS 2.5 wt %, 12.5 mg/kg): 20.3 ± 2.2 g
- Body weight (mean ± standard deviation) ([2]; G4, Ex. 1 25 mg/kg, 2012.01.12, at the time of DSS treatment, 25 mg/kg): 22.8 ± 0.8 g
- Body weight (mean ± standard deviation) ([2]; G4, Ex. 1 25 mg/kg, 2012.01.18, at autopsy after 7 days DSS 2.5 wt %, 25 mg/kg): 20.5 ± 0.9 g
- Body weight (mean ± standard deviation) ([2]; G5, Ex. 1 50 mg/kg, 2012.01.12, at the time of DSS treatment, 50 mg/kg): 22.9 ± 1.1 g
- Body weight (mean ± standard deviation) ([2]; G5, Ex. 1 50 mg/kg, 2012.01.18, at autopsy after 7 days DSS 2.5 wt %, 50 mg/kg): 21.4 ± 0.8 g
- Body weight (mean ± standard deviation) ([2]; G6, Ex. 1 100 mg/kg, 2012.01.12, at the time of DSS treatment, 100 mg/kg): 22.2 ± 1.3 g
- Body weight (mean ± standard deviation) ([2]; G6, Ex. 1 100 mg/kg, 2012.01.18, at autopsy after 7 days DSS 2.5 wt %, 100 mg/kg): 21.6 ± 0.7 g
- Colon length [6]: recovered the colon length
- Expression level of IL-6 (IL-6): decreased expression levels
- Amount of malondialdehyde (MDA) (Malondialdehyde (MDA); G3 and G4 (12.5 and 25 mg/kg), with statistical significance): decrease
- Level of MDA (Malondialdehyde (MDA); G3 to G6 (12.5-100 mg/kg), equivalency or superiority to control G7): decreased the level of MDA
